Our source for the IC50 values is patent US10065972B2, “Bicyclic or tricyclic heterocyclic compound” (MITSUBISHI TANABE PHARMA CORPORATION, priority 2014, dated 2018).

Counter-ions that a name gives are not always drawn.

Broadly, the IC50 is the concentration that gives 50% inhibition.

Sequence of human recombinant KAT-II (Q8N5Z0 30-425): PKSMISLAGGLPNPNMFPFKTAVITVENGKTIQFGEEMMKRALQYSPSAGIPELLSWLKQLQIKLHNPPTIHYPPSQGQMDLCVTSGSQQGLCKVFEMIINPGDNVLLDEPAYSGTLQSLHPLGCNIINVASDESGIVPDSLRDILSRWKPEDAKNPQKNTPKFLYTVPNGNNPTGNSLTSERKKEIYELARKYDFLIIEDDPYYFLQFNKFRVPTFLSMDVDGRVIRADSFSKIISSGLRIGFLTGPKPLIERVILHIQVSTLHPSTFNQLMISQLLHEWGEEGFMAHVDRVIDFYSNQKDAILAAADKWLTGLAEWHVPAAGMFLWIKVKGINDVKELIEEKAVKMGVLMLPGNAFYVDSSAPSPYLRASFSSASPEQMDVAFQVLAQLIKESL

This assay has as its target human recombinant KAT-II (Homo sapiens (Human), UniProt Q8N5Z0). Kind of assay: KAT-II inhibitory test. The note with it: 3.0 μmol/L kynurenine, 37° C., 1 hr, pH 8.0; kynurenic acid quantified by HPLC. Type of assay: biochemical. The method in brief: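 E. coli-expressed His/MBP-tagged human KAT-II (2.0 ng/μL) incubated with 3.0 μmol/L kynurenine and 10 μmol/L pyridoxal phosphate in Tris-acetate pH 8.0, 1 hr at 37 °C. Reaction stopped with TCA. Kynurenic acid quantified by reversed-phase HPLC with fluorescence detection (ex 354/em 460 nm), duplicate at each concentration.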
As to `COC1CN(Cc2nc3sc(N4CCC[C@@H]4C(=O)NCc4ccccc4)nc3c(=O)n2C)C1` [Example 321, (R)-N-benzyl-1-{5-[(3-methoxyazetidin-1-yl)methyl]-6-methyl-7-oxo-6,7-dihydro[1,3]thiazolo[5,4-d]pyrimidin-2-yl}pyrrolidine-2-carboxamide], the IC50 turned out to be 70 nM.
The value for `Cn1c(CN2CCOCC2)nc2sc(N3CCC[C@@H]3C(=O)NCc3ccccc3)nc2c1=O` [Example 322, (R)-N-benzyl-1-{6-methyl-5-[(morpholin-4-yl)methyl]-7-oxo-6,7-dihydro[1,3]thiazolo[5,4-d]pyrimidin-2-yl}pyrrolidine-2-carboxamide] was 20 nM.
The value for `CN(C)Cc1nc2sc(N3CCC[C@@H]3C(=O)NCc3ccccc3)nc2c(=O)n1C` [Example 323, (R)-N-benzyl-1-{5-[(N′,N′-dimethylamino)methyl]-6-methyl-7-oxo-6,7-dihydro[1,3]thiazolo[5,4-d]pyrimidin-2-yl}pyrrolidine-2-carboxamide] was 78 nM; that for `Cn1c(CN2Cc3ccccc3C2)nc2sc(N3CCC[C@@H]3C(=O)NCc3ccccc3)nc2c1=O` [Example 328, (R)-N-benzyl-1-{5-[(1,3-dihydro-2H-isoindol-2-yl)methyl]-6-methyl-7-oxo-6,7-dihydro[1,3]thiazolo[5,4-d]pyrimidin-2-yl}pyrrolidine-2-carboxamide] was 17 nM; that for `CN(Cc1nc2sc(N3CCC[C@@H]3C(=O)NCc3ccccc3)nc2c(=O)n1C)CC(F)(F)F` [Example 333, (R)-N-benzyl-1-[6-methyl-5-{[N′-methyl-N′-(2,2,2-trifluoroethyl)amino]methyl}-7-oxo-6,7-dihydro[1,3]thiazolo[5,4-d]pyrimidin-2-yl]pyrrolidine-2-carboxamide] was 49 nM.
The value for `CN(C)c1nc2sc(N3CCC[C@@H]3C(=O)NCc3ccccc3)nc2c(=O)n1C` [Example 335, (R)-N-benzyl-1-[5-(N′,N′-dimethylamino)-6-methyl-7-oxo-6,7-dihydro[1,3]thiazolo[5,4-d]pyrimidin-2-yl]pyrrolidine-2-carboxamide] was 5.6 nM; that for `Cn1c(N2CCCCC2)nc2sc(N3CCC[C@@H]3C(=O)NCc3ccccc3)nc2c1=O` [Example 337, (R)-N-benzyl-1-[6-methyl-7-oxo-5-(piperidin-1-yl)-6,7-dihydro[1,3]thiazolo[5,4-d]pyrimidin-2-yl]pyrrolidine-2-carboxamide] was 4.4 nM.
With `Cn1c(N2CCOCC2)nc2sc(N3CCC[C@@H]3C(=O)NCc3ccccc3)nc2c1=O` [Example 339, (R)-N-benzyl-1-[6-methyl-5-(morpholin-4-yl)-7-oxo-6,7-dihydro[1,3]thiazolo[5,4-d]pyrimidin-2-yl]pyrrolidine-2-carboxamide], the IC50 amounted to 7.9 nM.
As for `CC(C)Nc1nc2sc(N3CCC[C@@H]3C(=O)NCc3ccccc3)nc2c(=O)n1C` [Example 341, (R)-N-benzyl-1-{6-methyl-7-oxo-5-[(propan-2-yl)amino]-6,7-dihydro[1,3]thiazolo[5,4-d]pyrimidin-2-yl}pyrrolidine-2-carboxamide], the figure is 11 nM.
The value for `Cn1c(-c2ccccc2F)nc2sc(N3CCC[C@@H]3C(=O)NCc3ccccc3)nc2c1=O` [Example 345, (R)-N-benzyl-1-[5-(2-fluorophenyl)-6-methyl-7-oxo-6,7-dihydro[1,3]thiazolo[5,4-d]pyrimidin-2-yl]pyrrolidine-2-carboxamide] was 8.7 nM; that for `CNCCn1c(C(F)(F)F)nc2sc(N3CCC[C@@H]3C(=O)NCc3ccccc3)nc2c1=O` [Example 363, (R)-N-benzyl-1-[6-(2-methylaminoethyl)-7-oxo-5-trifluoromethyl-6,7-dihydro[1,3]thiazolo[5,4-d]pyrimidin-2-yl]pyrrolidine-2-carboxamide] was 120 nM.
Take `CN1CCC(Cn2c(C(F)(F)F)nc3sc(N4CCC[C@@H]4C(=O)NCc4ccccc4)nc3c2=O)CC1` [Example 366, (R)-N-benzyl-1-{6-[(1-methylpiperidin-4-yl)methyl]-7-oxo-5-trifluoromethyl-6,7-dihydro[1,3]thiazolo[5,4-d]pyrimidin-2-yl}pyrrolidine-2-carboxamide]: the IC50 is 150 nM.
Take `CN(C)CCn1c(C(F)(F)F)nc2sc(N3CCC[C@@H]3C(=O)NCc3ccccc3)nc2c1=O` [Example 372, (R)-N-benzyl-1-{6-[2-(N′,N′-dimethylamino)ethyl]-7-oxo-5-trifluoromethyl-6,7-dihydro[1,3]thiazolo[5,4-d]pyrimidin-2-yl}pyrrolidine-2-carboxamide]: the IC50 was 39 nM.
The value for `CN(CCn1c(C(F)(F)F)nc2sc(N3CCC[C@@H]3C(=O)NCc3ccccc3)nc2c1=O)CC(F)(F)F` [Example 373, (R)-N-benzyl-1-[6-{2-[N′-methyl-N′-(2,2,2-trifluoroethyl)amino]ethyl}-7-oxo-5-trifluoromethyl-6,7-dihydro[1,3]thiazolo[5,4-d]pyrimidin-2-yl]pyrrolidine-2-carboxamide hydrochloride] was 8 nM; that for `C[C@H](c1nc2sc(N3CCC[C@@H]3C(=O)NCc3ccccc3)nc2c(=O)n1C)N(C)C` [Example 376, (R)-N-benzyl-1-{5-[(R)-1-(N′,N′-dimethylamino)ethyl]-6-methyl-7-oxo-6,7-dihydro[1,3]thiazolo[5,4-d]pyrimidin-2-yl}pyrrolidine-2-carboxamide] was 14 nM.
Turning to `O=C(NCc1ccccc1)[C@H]1CCCN1c1nc2c(=O)n(CCO)c(C(F)(F)F)nc2s1` [Example 396, (R)-N-benzyl-1-[6-(2-hydroxyethyl)-7-oxo-5-trifluoromethyl-6,7-dihydro[1,3]thiazolo[5,4-d]pyrimidin-2-yl]pyrrolidine-2-carboxamide], the IC50 came out at 76 nM.
As for `CN(C)CCOc1nc2sc(N3CCC[C@@H]3C(=O)NCc3ccccc3)nc2c(=O)n1C` [Example 406, (R)-N-benzyl-1-{5-[2-(N′,N′-dimethylamino)ethoxy]-6-methyl-7-oxo-6,7-dihydro[1,3]thiazolo[5,4-d]pyrimidin-2-yl}pyrrolidine-2-carboxamide], the IC50 was determined as 370 nM.
For `CC(=O)c1nc2sc(N3CCC[C@@H]3C(=O)NCc3ccccc3)nc2c(=O)n1C` [Example 411, (R)-1-(5-acetyl-6-methyl-7-oxo-6,7-dihydro[1,3]thiazolo[5,4-d]pyrimidin-2-yl)-N-benzylpyrrolidine-2-carboxamide], the IC50 was 15 nM.
As for `COc1ccc(Cn2c(C(C)(C)F)nc3sc(N4CCC[C@@H]4C(=O)NCc4ccccc4)nc3c2=O)c(OC)c1` [Example 414, (R)-N-benzyl-1-[6-(2,4-dimethoxybenzyl)-5-(2-fluoropropan-2-yl)-7-oxo-6,7-dihydro[1,3]thiazolo[5,4-d]pyrimidin-2-yl]pyrrolidine-2-carboxamide], the figure is 43 nM; as for `CC(C)c1nc2sc(N(C)[C@H](C)C(=O)NCc3ccccc3)nc2c(=O)[nH]1` [Example 486, (R)-N-benzyl-2-{N′-[5-(propan-2-yl)-7-oxo-6,7-dihydro[1,3]thiazolo[5,4-d]pyrimidin-2-yl]-N′-methylamino}propionamide], 15 nM.
The value for `O=C(NCc1ccccc1)[C@H]1CCCN1c1nc2c(=O)[nH]c(-c3ccccc3F)nc2s1` [Example 489, (R)-N-benzyl-1-[5-(2-fluorophenyl)-7-oxo-6,7-dihydro[1,3]thiazolo[5,4-d]pyrimidin-2-yl]pyrrolidine-2-carboxamide] was 6 nM.
